{
  "source": "patent US20260191873A1",
  "about": "“FUSED AMINO PYRIMIDINE COMPOUNDS FOR TREATMENT OF 22q11.2 DELETION/DUPLICATION SYNDROMES” (Ovid Therapeutics Inc., priority 2024, published 2026)",
  "key": {"KA induced SE [1]": {"tested_on": "KA induced SE", "assay": "KA induced ongoing SE, EEG, treatment 2 h after KA", "type": "in vivo, mice", "description": "EEG recordings and analysis. WT C57Bl/6J adult male mice (12 weeks) were anesthetized with isofluorane and implanted with EEG/EMG electrodes and allowed to recover for 7 days prior to experimentation. […] 2 h following KA administration mice were injected with a saturating concentration of diazepam (DZ) 10 mg/kg (IP) and recordings were extended for a further 60 min. […] LabChart 8 software was used for data analysis. Epileptiform activity was identified by changes in the amplitude of electrographic activity characterized by consistent changes in the power of the Fast Fourier transform (FFT) of the EEG and abnormal activity characterized by periods of rhythmic spiking lasting longer than 30 s (Moore et al., 2017, supra; Silayeva et al., 2015, supra; Sivakumaran et al., J. Neurosci. 35, 8291-8296 (2015)).\nTo evaluate the potential of KCC2 activators to terminate ongoing SE, the KA model described above was employed. Mice were injected with KA (20 mg/Kg; IP). […] Spectral data were then subjected to FFT and the total EEG power between 1-100 Hz of the 2 h following KA treatment (pre-drug) and 30 min following their injection (post-drug) were compared (FIG. 6B). In mice treated with DZ alone variable effects were observed, from large increases to modest reductions in EEG power, but these effects were not significant (FIG. 6C; pre=1.1±0.2×10^−6, post=4.4±7.4×10^−7 μV^2, p=0.214, n=13-14 mice). […]"}, "[2]": {"tested_on": "panel of 144 protein kinases", "assay": "Protein kinase panel (SelectScreen; Thermofisher)", "type": "biochemical", "details": "144 protein kinases incl. PKC isoforms, OSR1, SPAK, WNK", "description": "Aliquots of HEK-293 cells expressing KCC2 were exposed to 30 μM SSA, heated from 37-55° C. The remaining level of soluble native KCC2 at each temperature was measured by immunoblotting and normalized to the level seen at 37° C. which was given a value of 1. […] This panel included protein kinase C isoforms, OSR1, SPAK (STK39) and with-no-lysine kinases (WNK), all of which phosphorylate KCC2 on multiple residues to indirectly modify its activity (Kahle et al., 2013, supra; Smalley et al., 2020, supra)."}, "KA induced SE [3]": {"tested_on": "KA induced SE", "assay": "KA induced SE, EEG, direct injection into the hippocampus", "type": "in vivo, mice", "details": "injected into the hippocampus, DZ 2 h after KA", "description": "30 or 60 min later mice were injected with KA (20 mg/kg) and 2 h later with DZ as detailed above."}, "KCC2": {"biological_target": "T1, KCC2 (Homo sapiens, UniProt Q9H2X9)", "T1 construct": "expressed in transfected cells; host or cells: HEK-293 (ATCC CRL-1573)", "T1 sequence (Q9H2X9 1-1116 isoform Q9H2X9-2)": "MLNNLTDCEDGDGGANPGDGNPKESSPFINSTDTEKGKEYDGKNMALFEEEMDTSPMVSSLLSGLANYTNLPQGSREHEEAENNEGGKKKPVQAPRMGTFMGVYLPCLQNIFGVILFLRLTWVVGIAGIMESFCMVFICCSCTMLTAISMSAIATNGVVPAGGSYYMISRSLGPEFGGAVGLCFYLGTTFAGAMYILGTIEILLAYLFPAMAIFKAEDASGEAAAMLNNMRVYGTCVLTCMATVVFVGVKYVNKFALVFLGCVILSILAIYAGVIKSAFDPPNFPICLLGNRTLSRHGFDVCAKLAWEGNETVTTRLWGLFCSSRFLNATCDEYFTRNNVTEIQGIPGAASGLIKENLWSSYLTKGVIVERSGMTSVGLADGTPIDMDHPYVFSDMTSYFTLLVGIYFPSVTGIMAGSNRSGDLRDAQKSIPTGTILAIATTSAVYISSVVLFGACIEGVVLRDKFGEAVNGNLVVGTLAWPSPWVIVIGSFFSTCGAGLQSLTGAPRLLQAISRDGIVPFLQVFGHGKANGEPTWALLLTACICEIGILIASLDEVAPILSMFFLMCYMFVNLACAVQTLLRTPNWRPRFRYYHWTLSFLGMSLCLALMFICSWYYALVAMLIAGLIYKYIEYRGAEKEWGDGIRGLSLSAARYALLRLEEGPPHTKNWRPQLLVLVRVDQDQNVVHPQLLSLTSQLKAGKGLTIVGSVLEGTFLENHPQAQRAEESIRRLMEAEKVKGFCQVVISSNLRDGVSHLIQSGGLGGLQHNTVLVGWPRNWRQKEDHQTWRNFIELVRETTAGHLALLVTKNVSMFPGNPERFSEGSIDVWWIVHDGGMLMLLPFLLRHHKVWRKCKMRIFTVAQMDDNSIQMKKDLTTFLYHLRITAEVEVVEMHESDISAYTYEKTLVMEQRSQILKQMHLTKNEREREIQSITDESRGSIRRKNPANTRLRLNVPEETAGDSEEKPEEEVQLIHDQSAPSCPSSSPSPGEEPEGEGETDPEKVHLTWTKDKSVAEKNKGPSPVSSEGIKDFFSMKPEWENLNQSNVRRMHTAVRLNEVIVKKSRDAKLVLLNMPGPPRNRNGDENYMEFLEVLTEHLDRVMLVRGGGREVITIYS", "assay": "FLIPR Tl+ flux assay in HEK-293 cells expressing KCC2", "type": "cell-based", "details": "saturating concentration of 3 μM, 1% BCD vehicle", "description": "A multi-tiered high-throughput screening assay was used, leveraging a proprietary library of 1.3 million small molecule compounds from AstraZeneca (Cambridge, UK) to identify chemical entities capable of activating KCC2. A single point concentration of 30 μM was used to identify potassium flux using an established thallium (TI+) influx FLIPR assay as the primary read out in HEK-293 cells overexpressing KCC2 (Cardarelli et al., Nat. Med. 23, 1394-1396 (2017); Conway et al., J Biol Chem 292, 21253-21263 (2017); Lee et al., 2022, supra).\nCell Culture and biotinylation. […]\nFLIPR TI Flux assay. HEK-293 cells were washed with HBSS, and then incubated with loading buffer containing TI sensitive fluorescent dye (https://www.moleculardevices.com), 20 μM bumetanide 20 μM ouabain and 2.5 mM probenecid for 1 h at room temperature (RT) under control conditions or with drugs in the dark using a FlexStation 3 microplate reader (Molecular Devices) and imaged […] for 30 min. Stimulus buffer was added containing 5 mM K^+/0.5 mM Tl^+ and cells were imaged every 1.5 over a 190 second time course The initial rate Tl^+ uptake (Relative Fluorescence Units (RFU) per second) was determined following addition of the stimulus buffer as outlined previously (Conway et al., 2017, supra) (Lee et al., 2022, supra). […]"}, "KA induced SE [4]": {"tested_on": "KA induced SE", "assay": "Kainic acid (KA) induced SE, EEG, pretreatment", "type": "in vivo, mice", "details": "Compound A pretreated, 2 h after KA, pre DZ; vehicle 4.2±2.4×10^−6", "from_the_text": "This model was chosen due to the similarities with patients undergoing SE, as KA-induced seizures become refractory to benzodiazepines (BDZs) within minutes (Betjemann and Lowenstein, Lancet Neurol 14, 615-624 (2015); Crawshaw and Cock, (2020a) [Seizure: Eur. J. Epilep. 75 (2020) 145-152] Seizure 80, 282; Lee et al., 2022, supra; Reddy and Kuruba, Int J Mol Sci 14, 18284-18318 (2013)).\nEEG recordings and analysis. WT C57Bl/6J adult male mice (12 weeks) were anesthetized with isofluorane and implanted with EEG/EMG electrodes and allowed to recover for 7 days prior to experimentation. […] 2 h following KA administration mice were injected with a saturating concentration of diazepam (DZ) 10 mg/kg (IP) and recordings were extended for a further 60 min. […] LabChart 8 software was used for data analysis. […]\nTo provide quantitative insights on the effects of KA, raw EEG recordings were subject to Fast-Fourier transformation (8K FFT size, Hann (cosine-bell), 87.50% window overlap) for frequencies between 0-100 Hz 2 h after KA injection (Lee et al., 2022, supra). […]"}},
  "data": [
    {"smiles": "CN1C(=O)CN=C(c2ccccc2)c2cc(Cl)ccc21", "note": "[DZ, diazepam, reference compound]", "values": [
      {"measurement": "mice insensitive to the effects on EEG power", "setting": "KA induced SE [1]; DZ 10 mg/kg IP 2 h after KA", "result": 62, "unit": "%"}
    ]},
    {"smiles": "C[C@@H]1CN(c2nc3c(c(Nc4ccc(C5CCCCC5)cc4)n2)COC3)CCO1", "note": "[Compound A, (R)—N-(4-cyclohexylphenyl)-2-(2-methylmorpholino)-5,7-dihydrofuro[3,4-d]pyrimidin-4-amine]", "values": [
      {"measurement": "activity of kinase panel", "setting": "[2]", "result": "did not modify the activity"},
      {"measurement": "effect of DZ on seizure parameters in pretreated mice", "setting": "KA induced SE [3]", "result": "significantly reduced"},
      {"measurement": "maximum potentiation", "setting": "KCC2", "result": 90, "unit": "%"},
      {"measurement": "DZ insensitivity", "setting": "KA induced SE [1]; Compound A 50 mg/kg with DZ 10 mg/kg IP", "result": "abolished"},
      {"measurement": "total EEG power", "setting": "KA induced SE [4]", "result": "6.9±3.2×10^−7 μV^2"}
    ]}
  ]
}
